{"source": "ChEMBL document CHEMBL5143617", "about": "(Eur J Med Chem, 2022)", "key": {"[1]": {"molecular_target": "T1, 5-hydroxytryptamine receptor 1A (Homo sapiens, UniProt P08908)", "T1 sequence (P08908 whole entry)": "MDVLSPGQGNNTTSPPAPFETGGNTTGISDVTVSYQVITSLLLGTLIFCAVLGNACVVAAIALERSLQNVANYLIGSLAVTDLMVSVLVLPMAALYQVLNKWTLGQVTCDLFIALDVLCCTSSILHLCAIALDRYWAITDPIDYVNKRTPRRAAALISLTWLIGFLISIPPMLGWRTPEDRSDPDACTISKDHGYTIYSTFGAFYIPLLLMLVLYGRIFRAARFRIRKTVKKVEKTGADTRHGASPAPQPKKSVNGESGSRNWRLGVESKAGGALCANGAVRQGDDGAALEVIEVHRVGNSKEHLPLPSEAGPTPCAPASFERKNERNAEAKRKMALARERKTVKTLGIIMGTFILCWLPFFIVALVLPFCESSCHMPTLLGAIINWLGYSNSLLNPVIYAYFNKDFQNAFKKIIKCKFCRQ", "assay": "Agonist activity at human 5-HT1A receptor expressed in CHO-K1 cells assessed as stimulation of ERK1/2 phosphorylation incubated for 15 mins by Alpha LISA assay", "format": "functional, cell-based"}, "[2]": {"assay": "Efflux ratio of apparent permeability across basolateral to apical membrane to apical to basolateral membrane in human Caco-2 cells", "format": "ADME, cell-based"}, "[3]": {"assay": "Plasma protein binding in human by LC-MS/MS analysis", "format": "ADME, cell-free", "details": "read-out: PPB (converted)"}, "[4]": {"assay": "Metabolic stability in human liver microsomes assessed as half life"}, "[5]": {"assay": "AUC(0 to t) in mouse striatum at 0.625 mg/kg, ip by LC/ESI-MS/MS analysis", "format": "ADME, organism-based", "parameters": "dose 0.625 mg/kg, route ip"}, "[6]": {"assay": "Cmax in mouse striatum at 0.625 mg/kg, ip by LC/ESI-MS/MS analysis", "format": "ADME, organism-based", "parameters": "dose 0.625 mg/kg, route ip"}, "[7]": {"molecular_target": "D(2) dopamine receptor (Homo sapiens, UniProt P14416)", "sequence (P14416 whole entry)": "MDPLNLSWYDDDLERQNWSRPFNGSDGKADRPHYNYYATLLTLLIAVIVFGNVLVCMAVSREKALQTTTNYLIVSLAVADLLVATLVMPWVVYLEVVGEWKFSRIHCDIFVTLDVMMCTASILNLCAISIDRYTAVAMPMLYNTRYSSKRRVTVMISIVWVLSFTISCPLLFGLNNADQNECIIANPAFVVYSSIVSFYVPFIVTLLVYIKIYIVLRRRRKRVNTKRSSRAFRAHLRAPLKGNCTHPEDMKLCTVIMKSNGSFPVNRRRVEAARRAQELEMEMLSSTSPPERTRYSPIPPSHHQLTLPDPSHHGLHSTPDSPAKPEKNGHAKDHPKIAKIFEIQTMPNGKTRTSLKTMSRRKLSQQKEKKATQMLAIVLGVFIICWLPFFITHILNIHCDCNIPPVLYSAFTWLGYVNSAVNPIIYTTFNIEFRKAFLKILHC", "assay": "Binding affinity to dopamine D2 receptor (unknown origin)"}, "[8]": {"assay": "AUC(0 to t) in mouse plasma at 0.625 mg/kg, ip measured up to 480 mins by LC/ESI-MS/MS analysis", "format": "ADME, organism-based", "parameters": "time < 480 min, dose 0.625 mg/kg, route ip", "details": "in vivo, 8 h"}, "[9]": {"assay": "Ratio of drug concentration in striatum to plasma in mouse at 0.625 mg/kg, ip by LC/ESI-MS/MS analysis", "format": "ADME, organism-based", "details": "striatum and plasma"}, "[10]": {"assay": "Ratio of drug concentration in Hippocampus to plasma in mouse at 0.625 mg/kg, ip by LC/ESI-MS/MS analysis", "format": "ADME, organism-based", "details": "hippocampus and plasma"}, "[11]": {"assay": "Tmax in mouse frontal cortex at 0.625 mg/kg, ip by LC/ESI-MS/MS analysis", "format": "ADME, organism-based"}, "[12]": {"assay": "Cmax in mouse hippocampus at 0.625 mg/kg, ip by LC/ESI-MS/MS analysis", "format": "ADME, organism-based", "parameters": "dose 0.625 mg/kg, route ip"}, "[13]": {"molecular_target": "T1, 5-hydroxytryptamine receptor 1A", "assay": "Displacement of [3H]-[…] from human 5-HT1A receptor expressed in CHO-K1 cells membrane by scintillation counter analysis", "format": "cell membranes"}, "[14]": {"assay": "Tmax in mouse plasma at 0.625 mg/kg, ip measured up to 480 mins by LC/ESI-MS/MS analysis", "format": "ADME, organism-based"}, "[15]": {"assay": "Ratio of drug concentration in frontal cortex to plasma in mouse at 0.625 mg/kg, ip by LC/ESI-MS/MS analysis", "format": "ADME, organism-based", "details": "frontal cortex and plasma"}, "[16]": {"tested_on": "Erythrocyte", "assay": "Hemolytic activity in human erythrocytes at 10^-6 to 10^-5 M after 30 mins by spectrophotometry", "format": "toxicity, cell-based", "details": "0.5 h, dose lower 1e-06 µmol/L, dose upper 1e-05 µmol/L"}, "[17]": {"tested_on": "Mus musculus", "assay": "Antidepressant activity in Swiss albino mouse assessed as reduction in immobility time at 0.625 mg/kg, ip measured for last 4 mins of 6 mins test by forced swim test", "format": "functional", "parameters": "scale not given: the % may be the effect or the level left", "details": "0.1 h"}, "[18]": {"assay": "Permeability of the compound across apical to basolateral side in human Caco-2 cells at pH 7.4", "format": "ADME, cell-based", "details": "Caco-2, pH 7.4, read-out: Papp"}, "[19]": {"tested_on": "Mus musculus", "assay": "Antipsychotic activity in CD-1 mouse assessed as inhibition of amphetamine-stimulated locomotor activity at 5 mg/kg, ip administered 30 mins prior to amphetamine stimulation and measured after 30 mins", "format": "functional, organism-based", "details": "time 60.0 min"}, "[20]": {"assay": "Permeability of the compound across apical to basolateral side in human Caco-2 cells at pH 6.5", "format": "ADME, cell-based", "details": "Caco-2, pH 6.5, read-out: Papp"}}, "note": "The source made the active and inactive calls. The rule behind the calls is not given here."}
{"smiles": "COc1cc2ncnc(N3CCC(CN4CCN(c5ccc(Cl)cc5)CC4)C3)c2cc1OC", "note": "(stereo not given)", "values": [{"measurement": "EC50", "setting": "[1]", "result": 4790, "unit": "nM"}, {"measurement": "efflux ratio", "setting": "[2]", "result": 0.19}, {"measurement": "fraction unbound", "setting": "[3]", "result": 0.018}, {"measurement": "half-life", "setting": "[4]", "result": 49, "unit": "min"}, {"measurement": "AUC(0-t)", "setting": "[5]", "result": 1060, "unit": "ng·h/mL"}, {"measurement": "Cmax", "setting": "[6]", "result": 317, "unit": "ng/mL"}, {"measurement": "Ki", "setting": "[7]", "result": "> 1000", "unit": "nM"}, {"measurement": "AUCt", "setting": "[8]", "result": 730, "unit": "ng·min/mL"}, {"measurement": "Kp", "setting": "[9]", "result": 87.4}, {"measurement": "Kp", "setting": "[10]", "result": 85.4}, {"measurement": "Tmax", "setting": "[11]", "result": 480, "unit": "min"}, {"measurement": "Cmax", "setting": "[12]", "result": 330, "unit": "ng/mL"}, {"measurement": "Ki", "setting": "[13]", "result": 363, "unit": "nM"}, {"measurement": "Tmax", "setting": "[14]", "result": 5, "unit": "min"}, {"measurement": "Kp", "setting": "[15]", "result": 149}, {"measurement": "Activity", "setting": "[16]", "result": "Non-Toxic"}, {"measurement": "Activity", "setting": "[17]", "result": 50, "unit": "%"}, {"measurement": "Papp A→B", "setting": "[18]", "result": 0.05, "unit": "×10⁻⁶ cm/s"}, {"measurement": "Activity", "setting": "[19]", "result": "Active"}, {"measurement": "Papp A→B", "setting": "[20]", "result": 0.26, "unit": "×10⁻⁶ cm/s"}]}
